Test results from patent EP3720857B1, “2-OXO-5H-CHROMENO[4,3-B]PYRIDINES FOR USE IN THE TREATMENT OF HEPATITIS B” (Galapagos NV, priority 2017, dated 2019).

Columns and labels:
[1] = tested on: hepatitis virus B (HBV) infection; assay: iCell hepatocytes assay, delayed assay (compounds added three days after HBV infection); type: cell-based; conditions: for EC50: Hepatitis B virus, Hepatocyte, HBs ELISA
Method: The principle of the iCell hepatocyte 2.0 96 well assay is to evaluate the inhibitory effect of a test compound on hepatitis virus B (HBV) infection. In this assays the HBV core antigen (HBcAg) and/or extracellular antigen (HBeAg) and/or surface antigen (HBsAg) are used as a marker for HBV infection. Nuclei count may be used as an indication for compound toxicity.
In the standard assay set-up HBV infection and compound addition are performed on the same day, in the delayed assay the compounds are added three days after HBV infection. iCell hepatocytes 2.0 are human hepatocytes derived from induced pluripotent stem cells (iPSc) purchased from Cellular Dynamics international (CDI, R1027).
At day 0, iCell hepatocytes 2.0 (CDI, R1027) are thawed and seeded in collagen I coated 96well plates at 112 000c/well (100µL) in plating medium (RPMI supplemented with B27 supplement, 20 ng/mL recombinant human oncostatin M (OSM), 25µg/mL gentamicin, 0.1µM Dexamethasone and iCell medium supplement provided by CDI). Plates are incubated at 37°C, 5% CO2 and daily refreshed with plating medium for the following four days.
On day 5 and 6, plates are refreshed with 100µL maintenance medium (RPMI supplemented with B27 supplement, 25µg/mL gentamicin, 0.1µM Dexamethasone, and iCell medium supplement provided by CDI) and incubated at 37°C, 5% CO2 until the following day.
On day 7 (day of infection), the maintenance medium is removed from the assay plates and cells are infected with 50 µL of HBV mix (HBV virus, 4% PEG, 0% or 2% DMSO in maintenance medium). The assay plates were incubated overnight at 37°C, 5% CO2.
At day 1 post infection (day8), 50µL of HBV mix is removed from the assay plates and refreshed with 100 µL of maintenance medium. The assay plates are incubated at 37°C, 5% CO2 for three days.
At day 4 post infection (day 11) and day 7 post infection (day14), the supernatant is removed and 100 µL of compound series diluted 1/500 in maintenance medium is added to the assay plates (8 point serial dilution using 1/3 dilution steps in 100% DMSO or 8 point serial dilution using ¼ dilution steps, normalized for 0.2% DMSO. The assay plates were incubated at 37°C, 5% CO2 for three days.
At day 10 post infection (day 17), 100µL of supernatant is harvested and frozen to -20°C. The cells are fixed with 50 µL of 3.7% formaldehyde and incubated for 30 min at room temperature. After fixation, cells are washed four times with phosphate buffer saline (PBS) with the plate washer (Select 405, microplate washer, Biotek) and subjected to HBc staining. harvested supernatant is used for HBe and/or HBs ELISA.
The assay plates are blocked with blocking buffer (2% FBS, 3% BSA, 0.2% TritonX100 in PBS) for 1 h at room temperature.
After blocking, the assay plates are tapped manually and incubated with 50 µL diluted primary antibody (1/700 Rabbit-anti-HBc Ag, Dako, B0586 or 1/350 Rabbit-anti-HBc Ag, Invitrogen, PA516368) in blocking buffer and incubated for 90 min at room temperature.
After 4 washes of PBST (1XPBS + 0.05% Tween) with the plate washer, the assay plates are incubated with 100 µL of secondary antibody (Donkey-anti-rabbit Alexa 488, Lifetechnologies, A21206) 1/500 diluted in blocking buffer and incubated for 60 min at room temperature in the dark, then washed 4 times with PBST on the plate washer and incubated with 100µL of DAPI (Sigma D9542, stock 5mg/mL) 1/10000 diluted in PBS for 15-30 min at room temperature in the dark.
Finally, the assay plates are read out on a InCell Analyzer 2200 (GE Healthcare). […]
After blocking, 30 µL of sample and HBe Ag standard (recombinant hepatitis B virus E antigen protein, 4mg/mL, Abcam, ab91273) are added to the plate. The HBe Ag standard is 1/3 diluted in blocking buffer starting from 1.25µg/mL. A vehicle control is also included. The plate is incubated for 30 min at room temperature.
After sample incubation, the plates are washed 4 times with PBST on a platewasher followed by 2 washed of PBS. […]

[2] = tested on: hepatitis virus B (HBV) infection; assay: HepG2 NTCP assay (HBcAg staining as marker of HBV infection); type: cell-based; conditions: HepG2-NTCP cells infected with HBV, HBV core antigen (HBcAg) as marker of infection
In short: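 HepG2-NTCP cells were infected with HBV (4% PEG, 1% DMSO) in the presence of compound overnight, then re-dosed and incubated 5 days at 37 °C. HBcAg immunofluorescence was imaged, with DAPI nuclei count taken as toxicity. Ten-point 1/3 dilutions gave % inhibition against 0.2% DMSO vehicle and 100 nM Myrcludex B, with dose-response curves fitted.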

IC50 [2] [nM]	SMILES	Delayed assay HBs ELISA % inhibition [1]	EC50 [1] [nM]
1 to 20	COc1cc2c(cc1OC)-c1c(cc(C(=O)O)c(=O)n1C1CC1)C(C(C)C)O2 (stereo not drawn) [Compound 3, 1-cyclopropyl-5-isopropyl-8,9-dimethoxy-2-oxo-5H-chromeno[4,3-b]pyridine-3-carboxylic acid]	+++ (75-100%)	> 50
0.001 to 1	COCCCOc1cc2c(cc1Cl)-c1c(cc(C(=O)O)c(=O)n1C1CC1)C(C(C)C)O2 (stereo not drawn) [Compound 4, 9-chloro-1-cyclopropyl-5-isopropyl-8-(3-methoxypropoxy) -2-oxo-5H-chromeno[4,3-b]pyridine-3-carboxylic acid]	++ (50-75%)	0.001 to 20
0.001 to 1	COCCCOc1cc2c(cc1Cl)-c1c(cc(C(=O)O)c(=O)n1C1CCC1)C(C(C)C)O2 (stereo not drawn) [Compound 17, 9-chloro-1-cyclobutyl-5-isopropyl-8-(3-methoxypropoxy) -2-oxo-5H-chromeno[4,3-b]pyridine-3-carboxylic acid]	+++ (75-100%)	0.001 to 20
1 to 20	COCCCOc1cc2c(cc1Cl)-c1c(cc(C(=O)O)c(=O)n1C1CC1)[C@@H](C1(C)COC1)O2 [Compound 47, (5S)-9-chloro-1-cyclopropyl-8-(3-methoxypropoxy)-5-(3-methyloxetan-3-yl)-2-oxo-5H-chromeno[4,3-b]pyridine-3-carboxylic acid]	++ (50-75%)	22 to 50
